Where two headings read alike, the source gives them in different places.
Molecular target: ENPP-1 ECD (Homo sapiens (Human), UniProt P22413)
Assay: Assay 2: inhibition of ENPP1 hydrolysis of 2′,3′-cGAMP (AMP-Glo, […] enzyme)
[1] = Assay 2 (KI), ENPP1 hydrolysis of 2′,3′-cGAMP, AMP-Glo, […] ENPP-1, 24 μM cGAMP
[2] = Assay 2 (KI), inhibition of ENPP1 hydrolysis of 2′,3′-cGAMP, no unit in Table 18 (Table 17 legend for this assay uses nM)
[3] = read-out: Assay 2 (KI), inhibition of ENPP1 hydrolysis of 2′,3′-cGAMP, no unit in Table 18 (Table 17 legend for this assay uses nM)
[4] = read-out: Assay 2 (KI), ENPP1 hydrolysis of 2′,3′-cGAMP, AMP-Glo, […] ENPP-1, 24 μM cGAMP

Chain of ENPP-1 ECD (P22413 98-925): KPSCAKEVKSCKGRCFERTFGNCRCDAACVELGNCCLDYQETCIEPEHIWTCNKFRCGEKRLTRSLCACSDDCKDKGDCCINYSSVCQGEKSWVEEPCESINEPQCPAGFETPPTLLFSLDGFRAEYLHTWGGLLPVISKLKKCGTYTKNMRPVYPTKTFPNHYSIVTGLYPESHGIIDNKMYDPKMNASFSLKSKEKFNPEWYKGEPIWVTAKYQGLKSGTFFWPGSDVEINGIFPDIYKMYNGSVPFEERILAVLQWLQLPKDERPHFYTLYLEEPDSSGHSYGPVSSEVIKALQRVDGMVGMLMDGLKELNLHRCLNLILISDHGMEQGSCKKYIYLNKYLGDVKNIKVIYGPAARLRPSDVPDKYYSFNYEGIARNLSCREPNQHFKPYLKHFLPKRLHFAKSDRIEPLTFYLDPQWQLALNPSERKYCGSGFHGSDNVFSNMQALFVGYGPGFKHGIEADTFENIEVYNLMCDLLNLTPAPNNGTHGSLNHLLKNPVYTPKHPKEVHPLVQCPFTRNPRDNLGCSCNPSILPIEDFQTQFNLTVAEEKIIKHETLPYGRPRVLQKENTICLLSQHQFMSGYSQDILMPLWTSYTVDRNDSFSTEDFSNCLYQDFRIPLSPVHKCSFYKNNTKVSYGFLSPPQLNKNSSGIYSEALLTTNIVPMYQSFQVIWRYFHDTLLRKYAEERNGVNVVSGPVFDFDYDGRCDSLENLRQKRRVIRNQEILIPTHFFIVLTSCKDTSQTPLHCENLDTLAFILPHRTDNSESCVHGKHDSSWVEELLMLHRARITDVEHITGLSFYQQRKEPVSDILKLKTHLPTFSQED
Description: Assay 2: Compared to the conditions in Assay 1, this assay has a larger dynamic range and ensures the system is under steady-state conditions by reducing the enzyme concentration in the assay.
Test compounds were plated in a 3× dilution scheme in a 384 well plate. […] AMP Detection solution (10 μL) was added to each well, the plate centrifuged and incubated for 60 min.

Compound | Ki [2] [nM] | Ki [3] [nM] | also measured
COc1cc2ncnc(N3CCC(CS(C)(=N)=O)CC3)c2cc1OC (centres unmarked) [Compound 147, {[1-(6,7-dimethoxyquinazolin-4-yl)piperidin-4-yl]methyl}(imino)methyl-λ^6-sulfanone] | 9.9 |  | Ki [1]: 3 to 300 nM
COc1cccc2c(N3CCC(CS(C)(=N)=O)CC3)c(F)cnc12 (centres unmarked) [Compound 202, {[1-(3-fluoro-8-methoxyquinolin-4-yl)piperidin-4-yl]methyl}(imino)methyl-λ^6-sulfanone] | 370 |  | 
CCS(=N)(=O)CC1(O)CCN(c2ncnc3c(OC)cccc23)CC1 (centres unmarked) [Compound 195, ethyl({[4-hydroxy-1-(8-methoxyquinazolin-4-yl)piperidin-4-yl]methyl})imino-λ^6-sulfanone] | 0.2 |  | 
COc1ccc(F)c2c(N3CCC(CS(C)(=N)=O)CC3)c(C#N)cnc12 (centres unmarked) [Compound 203, 5-fluoro-4-(4-{[imino(methyl)oxo-λ^6-sulfanyl]methyl}piperidin-1-yl)-8-methoxyquinoline-3-carbonitrile] | 1.7 |  | 
COc1cc2nncc(N3CCC4(CC3)CCN([S@@](C)(=N)=O)C4)c2cc1OC [Compound 211b] |  | 0.5 | 
COc1cc2nccc(OC[C@@H]3CCN([S@@](C)(=N)=O)C3)c2cc1F [Compound 229a] |  | 39 | 
COc1cc2nncc(N3CCC4(CC3)CCN(S(C)(=N)=O)C4)c2cc1Cl (centres unmarked) [Compound 219, [8-(6-chloro-7-methoxycinnolin-4-yl)-2,8-diazaspiro[4.5]decan-2-yl](imino)methyl-λ^6-sulfanone] | 0.091 |  | 
COc1cc2ncnc(OCC3CCN(S(C)(=N)=O)CC3)c2cc1OC (centres unmarked) [Compound 164, (4-{[(6,7-dimethoxyquinazolin-4-yl)oxy]methyl}piperidin-1-yl)(imino)methyl-λ^6-sulfanone] | 97 |  | Ki [1]: 3 to 300 nM
COc1cccc2c(N3CCC(C[S@@](=N)(=O)C4CC4)CC3)c(C#N)cnc12 [Compound 189a] |  | 8.8 | 
COc1cc2nccc(N3CCC(CNS(C)(=N)=O)CC3)c2cc1Cl (centres unmarked) [Compound 157, N-{[1-(6-chloro-7-methoxyquinolin-4-yl)piperidin-4-yl]methyl}methanesulfonoimidamide] | 2.7 |  | Ki [1]: < 3 nM
COc1cccc2c(N3CC4(CCN([S@](C)(=N)=O)C4)C3)c(C#N)cnc12 [Compound 222b] |  | 1.3 | 
COc1cccc2c(N3CCC(CS(C)(=N)=O)CC3)ccnc12 (centres unmarked) [Compound 180, imino({[1-(8-methoxyquinolin-4-yl)piperidin-4-yl]methyl})methyl-λ^6-sulfanone] | 16 |  | 
COc1cc2ncnc(N3CCC4(CC3)CCN([S@@](=N)(=O)C3CC3)C4)c2cc1OC [Compound 160b] |  | 1.7 | 
COc1ccc2c(O[C@H](C)c3cccc(S(C)(=N)=O)c3)ccnc2c1 (stereo partly drawn) [Compound 178, imino({3-[(1R)-1-[(7-methoxyquinolin-4-yl)oxy]ethyl]phenyl})methyl-λ^6-sulfanone] | 2.6 |  | 
COc1cccc2c(N3CCC(O)(C[S@](C)(=N)=O)CC3)ncnc12 [Compound 185b] |  | 2.8 | 
COc1cccc2c(N3CCC(CS(C)(=N)=O)CC3)cnnc12 (centres unmarked) [Compound 182, imino({[1-(8-methoxycinnolin-4-yl)piperidin-4-yl]methyl})methyl-λ^6-sulfanone] | 3.1 |  | 
COc1ccc2c(-n3cc(CCS(C)(=N)=O)cn3)ccnc2c1 (centres unmarked) [Compound 234, imino({2-[1-(7-methoxyquinolin-4-yl)-1H-pyrazol-4-yl]ethyl})methyl-λ^6-sulfanone] | > 500 |  | 
COc1cc2ncnc(OCC3CCS(=N)(=O)CC3)c2cc1OC (centres unmarked) [Compound 171, 4-{[(6,7-dimethoxyquinazolin-4-yl)oxy]methyl}-1-imino-1λ^6-thian-1-one] | 49 |  | 
COc1cc2ncnc(N3CCC4(CC3)CCN(S(C)(=N)=O)CC4)c2cc1OC (centres unmarked) [Compound 209, [9-(6,7-dimethoxyquinazolin-4-yl)-3,9-diazaspiro[5.5]undecan-3-yl](imino)methyl-λ^6-sulfanone] | 17 |  | 
COc1cc2nccc(N3CCC(CC[S@](C)(=N)=O)CC3)c2cc1Cl [Compound 141b] |  | 31 | Ki [4]: 3 to 300 nM
COc1cc2ncnc(N3CC4(CCN(S(C)(=N)=O)CC4)C3)c2cc1OC (centres unmarked) [Compound 206, [2-(6,7-dimethoxyquinazolin-4-yl)-2,7-diazaspiro[3.5]nonan-7-yl](imino)methyl-λ^6-sulfanone] | 17 |  | 
COc1ccc2c(OCC3CCS(=N)(=O)CC3)ccnc2c1 (single isomer, unassigned) [Compound 107a, 4-[(1-imino-1-oxido-3,4,5,6-tetrahydro-2H-thiopyran-4-yl)methoxy]-7-methoxy-quinoline] | 27 |  | 
COCCS(=N)(=O)c1ccc(Oc2ccnc3cc(OC)ccc23)cc1 (centres unmarked) [Compound 122, imino(2-methoxyethyl){4-[(7-methoxyquinolin-4-yl)oxy]phenyl}-λ^6-sulfanone] | 1.6 |  | Ki [1]: < 3 nM
COc1cccc2c(N3CCC(C[S@@](C)(=N)=O)CC3)c(C#N)cnc12 [Compound 179a] |  | 9.1 | 
COc1cc2nncc(N3CCC4(CC3)CCN([S@@](C)(=N)=O)C4)c2cc1Cl [Compound 219b] |  | 2 | 

Compound | Ki [2] [nM] | Ki [3] [nM] | also measured
COc1ccc2c(-c3ccc4c(c3)CN(S(C)(=N)=O)CC4)ccnc2n1 (centres unmarked) [Compound 163, imino[7-(7-methoxy-1,8-naphthyridin-4-yl)-1,2,3,4-tetrahydroisoquinolin-2-yl]methyl-λ^6-sulfanone] | 21 |  | Ki [1]: 3 to 300 nM
COc1ccc2c(-c3ccc4c(c3)CN([S@](C)(=N)=O)CC4)ccnc2c1 [Compound 52a] |  | 110 | Ki [4]: 3 to 300 nM
CC[S@](=N)(=O)CC1(O)CCN(c2ncnc3c(OC)cccc23)CC1 [Compound 195b] |  | 7.7 | 
COc1ccc2c(N3CCC4(CC3)CCN(S(C)(=N)=O)C4)ccnc2n1 (centres unmarked) [Compound 158, imino[8-(7-methoxy-1,8-naphthyridin-4-yl)-2,8-diazaspiro[4.5]decan-2-yl]methyl-λ^6-sulfanone] | 0.44 |  | Ki [1]: < 3 nM
COc1cccc2c(N3CCC(O)(C[S@](C)(=N)=O)CC3)c(C#N)cnc12 [Compound 198b] |  | 1.2 | 
COc1ccc2c(OCc3cncc(S(C)(=N)=O)c3)ccnc2c1 (centres unmarked) [Compound 172, imino(5-{[(7-methoxyquinolin-4-yl)oxy]methyl}pyridin-3-yl)methyl-λ^6-sulfanone] | 11 |  | 
COc1ccc2c(-c3ccc4c(c3)CN([S@@](C)(=N)=O)CC4)ccnc2c1 [Compound 52b] |  | 3.5 | Ki [4]: 3 to 300 nM
COc1cccc2c(N3CCC(O)(C[S@@](=N)(=O)C4CC4)CC3)ncnc12 [Compound 193a] |  | 54 | 
COc1cc(F)cc2c(N3CCC(CS(C)(=N)=O)CC3)ncnc12 (centres unmarked) [Compound 183, {[1-(6-fluoro-8-methoxyquinazolin-4-yl)piperidin-4-yl]methyl}(imino)methyl-λ^6-sulfanone] | 5.2 |  | 
COc1cc2ncnc(N3CCC(CN[S@](C)(=N)=O)CC3)c2cc1OC [Compound 94b] |  | 9 | Ki [4]: 3 to 300 nM
COc1cc2nccc(N3CCC4(CC3)CCN([S@](C)(=N)=O)C4)c2cc1Cl [Compound 156b] |  | 2.9 | Ki [4]: < 3 nM
COc1cccc2c(N3CC[C@@H](C[S@@](C)(=N)=O)C3)ncnc12 [Compound 239b] |  | 83 | 
COc1ccc2c(O[C@H]3CC[C@H](S(C)(=N)=O)CC3)ccnc2c1 (some centres unmarked) [Compound 243, imino(methyl)[(1r,4r)-4-[(7-methoxyquinolin-4-yl)oxy]cyclohexyl]-λ^6-sulfanone] | 4.3 |  | 
COc1cc2nccc(OC[C@H]3CCN([S@](C)(=N)=O)C3)c2cc1F [Compound 230a] |  | 11 | 
COc1ccc2c(N3CCC(CS(C)(=N)=O)CC3)ccnc2c1 (centres unmarked) [Compound 148, imino({[1-(7-methoxyquinolin-4-yl)piperidin-4-yl]methyl})methyl-λ^6-sulfanone] | 56 |  | Ki [1]: 3 to 300 nM
COc1cccc2c(N3CCC(O)(CS(C)(=N)=O)C4(CC4)C3)ncnc12 (centres unmarked) [Compound 194, {[8-hydroxy-5-(8-methoxyquinazolin-4-yl)-5-azaspiro[2.5]octan-8-yl]methyl}(imino)methyl-λ^6-sulfanone] | 40 |  | 
COc1cccc2c(N3CC=C(CS(C)(=N)=O)CC3)ncnc12 (centres unmarked) [Compound 246, imino({[1-(8-methoxyquinazolin-4-yl)-1,2,3,6-tetrahydropyridin-4-yl]methyl})methyl-λ^6-sulfanone] | 19 |  | 
COc1ccc2c(OCC3CCS(=N)(=O)CC3)ccnc2c1 (centres unmarked) [Compound 107, 4-[(1-imino-1-oxido-3,4,5,6-tetrahydro-2H-thiopyran-4-yl)methoxy]-7-methoxy-quinoline] | 80 |  | 
COc1cc2nccc(N3CCC4(CC3)CCN([S@](C)(=N)=O)C4)c2cc1F [Compound 205a] |  | 5 | 
COc1cc2ncnc(N3CCC4(CCN(S(C)(=N)=O)C4)C3)c2cc1OC (centres unmarked) [Compound 216, [7-(6,7-dimethoxyquinazolin-4-yl)-2,7-diazaspiro[4.4]nonan-2-yl](imino)methyl-λ^6-sulfanone] | 5.5 |  | 
COc1ccc2c(OCC3CCS(=N)(=O)CC3)ccnc2c1 (single isomer, unassigned) [Compound 107b, 4-[(1-imino-1-oxido-3,4,5,6-tetrahydro-2H-thiopyran-4-yl)methoxy]-7-methoxy-quinoline] | 74 |  | 
COc1cccc2c(N3CC[C@H](C[S@](C)(=N)=O)C3)ncnc12 [Compound 238b] |  | 13 | 
COc1cc(F)cc2c(N3CCC(C[S@@](C)(=N)=O)CC3)ncnc12 [Compound 183a] |  | 2.9 | 
COc1cc2nccc(OCc3cccc([S@@](C)(=N)=O)c3)c2cc1OC [Compound 175b] |  | 4.1 | 
COc1ccc2c(OCc3cc(F)cc([S@@](C)(=N)=O)c3)ccnc2c1 [Compound 177a] |  | 20 | 
